Measurements reported in PubChem BioAssay (NCI).
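Method: 48-hour compound exposure of cells in 96-well plates, five concentrations, linear interpolation of endpoints. TGI denotes the concentration required for complete inhibition of growth.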

Assays:
Experiment in all cases: NCI tumour cell line growth inhibition, 48 h
NCI/ADR-RES ovarian = tested on: NCI/ADR-RES ovarian
KM12 colon = tested on: KM12 colon
OVCAR-8 ovarian = tested on: OVCAR-8 ovarian
HT29 colon = tested on: HT29 colon
SN12C renal = tested on: SN12C renal
TK-10 renal = tested on: TK-10 renal
A498 renal = tested on: A498 renal
SW-620 colon = tested on: SW-620 colon
MOLT-4 leukemia = tested on: MOLT-4 leukemia
NCI-H226 lung = tested on: NCI-H226 lung

SMILES: CN(C)CCNC(=O)c1cccc2c(NC(CCCN=C(N)N)C(=O)O)c3ccccc3nc12 (configuration not stated)
- TGI (NCI/ADR-RES ovarian): 25.1 µM
- TGI (KM12 colon): 61.5 µM
- TGI (OVCAR-8 ovarian): 30.5 µM
- TGI (HT29 colon): 14.1 µM
- TGI (SN12C renal): > 100 µM
- TGI (TK-10 renal): > 100 µM
- TGI (A498 renal): 61.3 µM
- TGI (SW-620 colon): > 100 µM
- TGI (MOLT-4 leukemia): > 100 µM
- TGI (NCI-H226 lung): 22.8 µM

SMILES: CC(C)C(C=O)C(O)(C(F)(F)F)C(F)(F)F (configuration not stated)
- TGI (NCI/ADR-RES ovarian): > 100 µM
- TGI (KM12 colon): > 100 µM
- TGI (OVCAR-8 ovarian): > 100 µM
- TGI (HT29 colon): > 100 µM
- TGI (TK-10 renal): > 100 µM
- TGI (A498 renal): > 100 µM
- TGI (SW-620 colon): > 100 µM
- TGI (MOLT-4 leukemia): > 100 µM
- TGI (NCI-H226 lung): > 100 µM

SMILES: O=C(NC1CCCCC1)N1CCNC1=S
- TGI (NCI/ADR-RES ovarian): > 100 µM
- TGI (KM12 colon): > 100 µM
- TGI (OVCAR-8 ovarian): > 100 µM
- TGI (HT29 colon): > 100 µM
- TGI (SN12C renal): > 100 µM
- TGI (TK-10 renal): > 100 µM
- TGI (A498 renal): > 100 µM
- TGI (SW-620 colon): > 100 µM
- TGI (MOLT-4 leukemia): > 100 µM
- TGI (NCI-H226 lung): > 100 µM

SMILES: OC[C@@H](O)[C@H](O)[C@H](O)[C@@H](O)C1SCCCS1
- TGI (NCI/ADR-RES ovarian): > 100 µM
- TGI (KM12 colon): > 100 µM
- TGI (OVCAR-8 ovarian): > 100 µM
- TGI (HT29 colon): > 100 µM
- TGI (SN12C renal): > 100 µM
- TGI (TK-10 renal): > 100 µM
- TGI (A498 renal): > 100 µM
- TGI (SW-620 colon): > 100 µM
- TGI (MOLT-4 leukemia): > 100 µM
- TGI (NCI-H226 lung): > 100 µM

SMILES: CN1CN(c2ccccc2)C2(CCN(C(=O)OC(C)(C)C)CC2)C1=O
- TGI (NCI/ADR-RES ovarian): > 100 µM
- TGI (KM12 colon): > 100 µM
- TGI (OVCAR-8 ovarian): > 100 µM
- TGI (HT29 colon): > 100 µM
- TGI (SN12C renal): > 100 µM
- TGI (TK-10 renal): > 100 µM
- TGI (A498 renal): > 100 µM
- TGI (SW-620 colon): > 100 µM
- TGI (MOLT-4 leukemia): > 100 µM
- TGI (NCI-H226 lung): > 100 µM

SMILES: COc1ccc2cc(CNCCOCCOCCNCc3ccc4cc(OC)ccc4c3)ccc2c1
- TGI (NCI/ADR-RES ovarian): 3.02 µM
- TGI (KM12 colon): 2.27 µM
- TGI (OVCAR-8 ovarian): 2.97 µM
- TGI (HT29 colon): 0.394 µM
- TGI (SN12C renal): 3.85 µM
- TGI (TK-10 renal): 2.98 µM
- TGI (A498 renal): 3.78 µM
- TGI (SW-620 colon): 3.69 µM
- TGI (MOLT-4 leukemia): 2.44 µM
- TGI (NCI-H226 lung): 3.09 µM

SMILES: COc1ccc2nc3c(nc2c1)C(C)(C)C=C3c1ccc(Br)cc1
- TGI (NCI/ADR-RES ovarian): > 100 µM
- TGI (KM12 colon): > 100 µM
- TGI (OVCAR-8 ovarian): > 100 µM
- TGI (HT29 colon): > 100 µM
- TGI (SN12C renal): > 100 µM
- TGI (TK-10 renal): > 100 µM
- TGI (A498 renal): > 100 µM
- TGI (SW-620 colon): 21.9 µM
- TGI (MOLT-4 leukemia): > 100 µM
- TGI (NCI-H226 lung): > 100 µM

SMILES: Nc1nc(Cl)cc(Oc2ccc(Cl)cc2)n1
- TGI (NCI/ADR-RES ovarian): > 100 µM
- TGI (KM12 colon): > 100 µM
- TGI (OVCAR-8 ovarian): > 100 µM
- TGI (HT29 colon): > 100 µM
- TGI (SN12C renal): > 100 µM
- TGI (TK-10 renal): > 100 µM
- TGI (A498 renal): > 100 µM
- TGI (SW-620 colon): > 100 µM
- TGI (MOLT-4 leukemia): > 100 µM
- TGI (NCI-H226 lung): > 100 µM

SMILES: C=c1c2ccccc2oc2nc3[nH]c(N)c(C#N)c(N)c3c(=N)c12
- TGI (NCI/ADR-RES ovarian): > 100 µM
- TGI (KM12 colon): 56.4 µM
- TGI (OVCAR-8 ovarian): 54.6 µM
- TGI (HT29 colon): 80.8 µM
- TGI (SN12C renal): > 100 µM
- TGI (TK-10 renal): > 100 µM
- TGI (A498 renal): > 100 µM
- TGI (SW-620 colon): > 100 µM
- TGI (MOLT-4 leukemia): 89.2 µM
- TGI (NCI-H226 lung): 74.9 µM

SMILES: O=C(O)C(=Cc1ccc(-c2ccc([N+](=O)[O-])cc2)o1)C(=O)O
- TGI (NCI/ADR-RES ovarian): > 100 µM
- TGI (KM12 colon): > 100 µM
- TGI (OVCAR-8 ovarian): > 100 µM
- TGI (HT29 colon): > 100 µM
- TGI (SN12C renal): > 100 µM
- TGI (TK-10 renal): > 100 µM
- TGI (A498 renal): > 100 µM
- TGI (SW-620 colon): > 100 µM
- TGI (MOLT-4 leukemia): > 100 µM
- TGI (NCI-H226 lung): > 100 µM

SMILES: Cn1cnc([N+](=O)[O-])c1Sc1nnc(-c2ccc(Cl)cc2)n1C
- TGI (KM12 colon): 49.9 µM
- TGI (OVCAR-8 ovarian): 46 µM
- TGI (HT29 colon): 32 µM
- TGI (SN12C renal): 28.4 µM
- TGI (TK-10 renal): 31.6 µM
- TGI (A498 renal): 81.8 µM
- TGI (SW-620 colon): 23.5 µM
- TGI (MOLT-4 leukemia): 66.1 µM
- TGI (NCI-H226 lung): 65.9 µM

SMILES: Cn1c(SCc2ccc([N+](=O)[O-])cc2)nnc1C12CC3CC(CC(C3)C1)C2
- TGI (NCI/ADR-RES ovarian): > 10 µM
- TGI (KM12 colon): > 10 µM
- TGI (OVCAR-8 ovarian): > 10 µM
- TGI (HT29 colon): > 10 µM
- TGI (SN12C renal): > 10 µM
- TGI (A498 renal): > 10 µM
- TGI (SW-620 colon): > 10 µM
- TGI (MOLT-4 leukemia): > 10 µM
- TGI (NCI-H226 lung): > 10 µM

SMILES: COc1c(C(=O)CC2c3c(cc4oc(C)cc(=O)c4c3OC)OC(=N)C2c2nc3ccccc3[nH]2)c(O)c(OC)c2occc12 (configuration not stated)
- TGI (NCI/ADR-RES ovarian): > 100 µM
- TGI (KM12 colon): > 100 µM
- TGI (OVCAR-8 ovarian): > 100 µM
- TGI (HT29 colon): > 100 µM
- TGI (SN12C renal): > 100 µM
- TGI (TK-10 renal): > 100 µM
- TGI (A498 renal): > 100 µM
- TGI (SW-620 colon): > 100 µM
- TGI (MOLT-4 leukemia): > 100 µM
- TGI (NCI-H226 lung): > 100 µM

SMILES: CC(=O)Nc1ccc(S(=O)(=O)Nc2cnc3ccccc3n2)cc1
- TGI (KM12 colon): > 100 µM
- TGI (OVCAR-8 ovarian): > 100 µM
- TGI (HT29 colon): > 100 µM
- TGI (SN12C renal): > 100 µM
- TGI (TK-10 renal): > 100 µM
- TGI (A498 renal): > 100 µM
- TGI (SW-620 colon): > 100 µM
- TGI (MOLT-4 leukemia): > 100 µM
- TGI (NCI-H226 lung): > 100 µM

SMILES: CC(C)(C)c1ccc(OCCOc2ccc(C(C)(C)C)cc2NC=O)c(NC=O)c1
- TGI (NCI/ADR-RES ovarian): 37.7 µM
- TGI (KM12 colon): 16.2 µM
- TGI (OVCAR-8 ovarian): 59.4 µM
- TGI (HT29 colon): 7.32 µM
- TGI (SN12C renal): 30.8 µM
- TGI (TK-10 renal): > 100 µM
- TGI (A498 renal): 40 µM
- TGI (SW-620 colon): > 58.3 µM
- TGI (MOLT-4 leukemia): 19.1 µM
- TGI (NCI-H226 lung): 28.1 µM

SMILES: Nc1ccc(Oc2ccc(C34CC5CC(C3)CC(c3ccc(Oc6ccc(N)c(O)c6)cc3)(C5)C4)cc2)cc1O
- TGI (NCI/ADR-RES ovarian): 6.12 µM
- TGI (KM12 colon): 3.62 µM
- TGI (OVCAR-8 ovarian): 4.86 µM
- TGI (HT29 colon): 5.16 µM
- TGI (SN12C renal): > 21.2 µM
- TGI (TK-10 renal): > 20.3 µM
- TGI (A498 renal): 36.1 µM
- TGI (SW-620 colon): > 100 µM
- TGI (MOLT-4 leukemia): > 100 µM
- TGI (NCI-H226 lung): 9.93 µM

SMILES: CN(C)CC(O)CNC(=O)Nc1ccccc1 (configuration not stated)
- TGI (NCI/ADR-RES ovarian): > 100 µM
- TGI (KM12 colon): > 100 µM
- TGI (OVCAR-8 ovarian): > 100 µM
- TGI (HT29 colon): > 100 µM
- TGI (SN12C renal): > 100 µM
- TGI (TK-10 renal): > 100 µM
- TGI (A498 renal): > 100 µM
- TGI (SW-620 colon): > 100 µM
- TGI (NCI-H226 lung): > 100 µM

SMILES: CC(=O)O[C@H]1C(=O)[C@@]2(C)C(C(OC(=O)c3ccccc3)[C@]3(O)CC(OC(=O)C(O)C(NC(=O)c4cccc(Cl)c4)c4ccccc4)C(C)=C1C3(C)C)[C@]1(OC(C)=O)CO[C@@H]1C[C@@H]2O (some centres not stated)
- TGI (NCI/ADR-RES ovarian): > 10 µM
- TGI (KM12 colon): > 10 µM
- TGI (OVCAR-8 ovarian): > 10 µM
- TGI (HT29 colon): > 10 µM
- TGI (SN12C renal): > 10 µM
- TGI (TK-10 renal): > 10 µM
- TGI (SW-620 colon): > 10 µM
- TGI (MOLT-4 leukemia): > 10 µM
- TGI (NCI-H226 lung): > 10 µM

SMILES: COC(=O)C1=C(C(=O)OC)SC2(S1)C(C(=O)OC)=C(C(=O)OC)Sc1c2ssc1=O
- TGI (NCI/ADR-RES ovarian): 2.82 µM
- TGI (KM12 colon): 15.4 µM
- TGI (OVCAR-8 ovarian): 2.69 µM
- TGI (HT29 colon): 1.78 µM
- TGI (SN12C renal): 2.96 µM
- TGI (TK-10 renal): 3.04 µM
- TGI (A498 renal): 3.68 µM
- TGI (SW-620 colon): 2.47 µM
- TGI (MOLT-4 leukemia): 0.843 µM
- TGI (NCI-H226 lung): 2.97 µM

SMILES: CC(=O)OC1CC[C@@]2(C)C(=CC[C@@H]3[C@@H]2CC[C@]2(C)Nc4c(cnn4-c4ccc(F)cc4)C[C@@H]32)C1 (some centres not stated)
- TGI (NCI/ADR-RES ovarian): > 100 µM
- TGI (KM12 colon): > 84.1 µM
- TGI (OVCAR-8 ovarian): > 100 µM
- TGI (HT29 colon): > 100 µM
- TGI (SN12C renal): > 100 µM
- TGI (TK-10 renal): > 100 µM
- TGI (A498 renal): > 83.1 µM
- TGI (SW-620 colon): > 100 µM
- TGI (NCI-H226 lung): > 100 µM

SMILES: Cc1ccc2c(=O)cc(-c3ccccc3)[nH]c2n1
- TGI (NCI/ADR-RES ovarian): 0.31 µM
- TGI (KM12 colon): 45.7 µM
- TGI (OVCAR-8 ovarian): 0.853 µM
- TGI (HT29 colon): 0.194 µM
- TGI (SN12C renal): > 36 µM
- TGI (TK-10 renal): > 9.36 µM
- TGI (SW-620 colon): > 100 µM
- TGI (MOLT-4 leukemia): > 28.3 µM
- TGI (NCI-H226 lung): 9.69 µM
